Data taken from patent US6660752B2, “2,6-Substituted chroman derivatives useful as beta-3 adrenoreceptor agonists” (Bayer Pharmaceuticals Corporation, priority 2001, dated 2003).
pEC50: −log10 of the molar value. Like-named read-outs stand apart in the source and are kept apart here.

Molecular target: T1, human beta-3-adrenergic receptor (Homo sapiens, UniProt P13945)
T1 construct: stably express full-length human beta-3-adrenergic receptor; expressed in transfected cells; host or cells: Chinese hamster ovary (CHO) cells
Assay: cAMP production (beta-3 agonist activity) in CHO cells stably expressing human beta-3-adrenergic receptor, cAMP SPA
Format: cell-based
Settings: CHO cells expressing full-length human beta-3-adrenergic receptor, 30 min incubation, 10 μM to 3 nM
How it was run: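 CHO cells stably expressing full-length receptor treated 30 min at 37° C with compounds (10 μM to 3 nM, 3-fold dilutions) in KRP buffer pH 7.4 with […] IBMX and 1% DMSO. Lysed cells assayed for cAMP by SPA; EC50 derived from cAMP concentration-response curves.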

[1] = read-out: Beta-3 Agonistic Activity: Compounds with EC50 values ≦1 μM
[2] = read-out: Beta-3 Agonistic Activity: Compounds with EC50 values >1 μM

T1 sequence (P13945 whole entry): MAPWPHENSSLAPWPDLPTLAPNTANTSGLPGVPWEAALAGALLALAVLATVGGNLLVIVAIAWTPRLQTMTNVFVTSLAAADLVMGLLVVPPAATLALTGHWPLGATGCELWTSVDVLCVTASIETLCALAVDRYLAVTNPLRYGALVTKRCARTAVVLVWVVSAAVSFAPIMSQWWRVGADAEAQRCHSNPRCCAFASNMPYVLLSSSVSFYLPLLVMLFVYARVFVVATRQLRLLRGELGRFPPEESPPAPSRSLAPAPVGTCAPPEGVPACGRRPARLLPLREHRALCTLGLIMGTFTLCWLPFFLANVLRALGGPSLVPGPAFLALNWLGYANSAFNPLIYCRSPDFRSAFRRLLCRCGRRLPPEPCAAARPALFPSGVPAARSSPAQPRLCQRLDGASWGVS

pEC50 [1] | pEC50 [2] | SMILES
≥ 6.00 |  | O=C(Nc1ccc(F)cc1)NS(=O)(=O)c1cccc(-c2ccc3c(c2)CC[C@H](CNC[C@H](O)c2cccnc2)O3)c1 [Example 333]
≥ 6.00 |  | COc1ccc(NC(=O)NS(=O)(=O)c2cccc(-c3ccc4c(c3)CC[C@H](CNC[C@H](O)c3cccnc3)O4)c2)cc1 [Example 334]
≥ 6.00 |  | O=C(Nc1ccc(Cl)cc1)NS(=O)(=O)c1cccc(-c2ccc3c(c2)CC[C@H](CNC[C@H](O)c2cccnc2)O3)c1 [Example 335]
≥ 6.00 |  | O=C(Nc1ccccc1F)NS(=O)(=O)c1cccc(-c2ccc3c(c2)CC[C@H](CNC[C@H](O)c2cccnc2)O3)c1 [Example 336]
≥ 6.00 |  | O=C(Nc1cccc(C(F)(F)F)c1)NS(=O)(=O)c1cccc(-c2ccc3c(c2)CC[C@H](CNC[C@H](O)c2cccnc2)O3)c1 [Example 337]
≥ 6.00 |  | O=C(Nc1cccc(F)c1)NS(=O)(=O)c1ccc(-c2ccc3c(c2)CC[C@H](CNC[C@H](O)c2cccnc2)O3)cc1 [Example 338]
≥ 6.00 |  | CC(C)NC(=O)NS(=O)(=O)c1ccc(-c2ccc3c(c2)CC[C@H](CNC[C@H](O)c2cccnc2)O3)cc1 [Example 339]
≥ 6.00 |  | O=C(Nc1ccc(Cl)cc1)NS(=O)(=O)c1ccc(-c2ccc3c(c2)CC[C@H](CNC[C@H](O)c2cccnc2)O3)cc1 [Example 340]
≥ 6.00 |  | COc1ccc([C@H](O)CNC[C@H]2CCc3cc(-c4ccc(C(=O)O)cc4)ccc3O2)cn1 [Example 343]
≥ 6.00 |  | O=C(O)c1ccc(-c2ccc3c(c2)CC[C@H](CNC[C@H](O)c2cccc(Cl)c2)O3)cc1 [Example 344, 4-[(2R)-2-({[(2R)-2-(3-chlorophenyl)-2-hydroxyethyl]amino}methyl)-3,4-dihydro-2H-chromen-6-yl]benzoic acid]
≥ 6.00 |  | O=C(O)c1ccc(-c2ccc3c(c2)CC[C@H](CNC[C@@H](O)c2c(F)ccc(Cl)c2F)O3)cc1 [Example 348]
≥ 6.00 |  | O=C(O)c1ccc(-c2ccc3c(c2)CC[C@H](CNC[C@@H](O)c2cccc(Cl)c2F)O3)cc1 [Example 352]
≥ 6.00 |  | Nc1ccc([C@@H](O)CNC[C@H]2CCc3cc(C(=O)NCC(=O)O)ccc3O2)cn1 [Example 362, N-{[(2R)-2-({[(2R)-2-(6-amino-3-pyridinyl)-2-hydroxyethyl]amino}methyl)-3,4-dihydro-2H-chromen-6-yl]carbonyl}glycine]
 | < 6.00 | Nc1ccc([C@@H](O)CNC[C@H]2CCc3cc(C(=O)N4CCC[C@H]4C(=O)O)ccc3O2)cn1 [Example 363]
 | < 6.00 | Nc1ccc([C@@H](O)CNC[C@H]2CCc3cc(C(=O)N4CCCC[C@H]4C(=O)O)ccc3O2)cn1 [Example 364]
 | < 6.00 | Nc1ccc([C@@H](O)CNC[C@H]2CCc3cc(C(=O)N(CC(=O)O)Cc4ccccn4)ccc3O2)cn1 [Example 365]
≥ 6.00 |  | Nc1ccc([C@@H](O)CNC[C@H]2CCc3cc(C(=O)NC4(C(=O)O)CC4)ccc3O2)cn1 [Example 366, 1-({[(2R)-2-({[(2R)-2-(6-amino-3-pyridinyl)-2-hydroxyethyl]amino}methyl)-3,4-dihydro-2H-chromen-6-yl]carbonyl}amino)cyclopropanecarboxylic acid]
 | < 6.00 | Nc1ccc([C@@H](O)CNC[C@H]2CCc3cc(C(=O)N4CCC[C@@H]4C(=O)O)ccc3O2)cn1 [Example 367]
≥ 6.00 |  | COC(=O)c1ccc(-c2ccc3c(c2)CC[C@H](CNC[C@H](O)c2ccc(N)nc2)O3)cc1 [Example 381]
≥ 6.00 |  | COC(=O)c1cccc(-c2ccc3c(c2)CC[C@H](CNC[C@H](O)c2ccc(N)nc2)O3)c1 [Example 382]
≥ 6.00 |  | Nc1ccc([C@@H](O)CNC[C@H]2CCc3cc(-c4cccc(C(=O)N5CCCC5)c4)ccc3O2)cn1 [Example 383]
≥ 6.00 |  | Nc1ccc([C@@H](O)CNC[C@H]2CCc3cc(-c4ccc(-c5nnn[nH]5)cc4)ccc3O2)cn1 [Example 384, (1R)-1-(6-amino-3-pyridinyl)-2-[({(2R)-6-[4-(1H-tetraazol-5-yl)phenyl]-3,4-dihydro-2H-chromen-2-yl}methyl)amino]ethanol]
≥ 6.00 |  | Nc1ccc([C@@H](O)CNC[C@H]2CCc3cc(-c4ccc(C(=O)O)cc4)ccc3O2)cn1 [Example 385, 4-[(2R)-2-({[(2R)-2-(6-amino-3-pyridinyl)-2-hydroxyethyl]amino}methyl)-3,4-dihydro-2H-chromen-6-yl]benzoic Acid]
≥ 6.00 |  | Nc1ccc([C@@H](O)CNC[C@H]2CCc3cc(-c4cccc(C(=O)O)c4)ccc3O2)cn1 [Example 386, 3-[(2R)-2-({[(2R)-2-(6-amino-3-pyridinyl)-2-hydroxyethyl]amino}methyl)-3,4-dihydro-2H-chromen-6-yl]benzoic Acid]
